Source: patent publication US20150051206A1, “COMPOUNDS AND COMPOSITIONS AS C-KIT KINASE INHIBITORS” (IRM LLC, priority 2011, published 2015)

Target: T1, c-kit (Homo sapiens, UniProt P10721)
T1 construct: human Mo7e cells which endogenously express c-kit; endogenous in cells; host or cells: human Mo7e cells (promegakaryocytic leukemia line), stimulated with human recombinant SCF
Experiment: Mo7e cell proliferation assay (SCF dependent proliferation)
Type: cell-based
Details: Table 2; Mo7e cells stimulated with human recombinant SCF, 48 hours; 1% FBS
Description: Compounds of Formula (I) and Formula (II) provided herein were assayed to measure their capacity to inhibit c-kit and PDGFR kinases using the appropriate assay described below: c-Kit inhibition was evaluated using the Mo7e cell proliferation assay, and PDGFR inhibition was evaluated using the Rat A10 cell proliferation assay and the Human TG/HA-VSMC cell proliferation assay.
The compounds of Table 1 and Table 2 were tested for inhibition of SCF dependent proliferation using human Mo7e cells which endogenously express c-kit in a 384 well format. […] After 48 hours of incubation at 37° C., cell viability was measured by adding 25 uL of CellTiter Glo (Promega) to the cells and the luminescence was measured by a CLIPR CCD camera (Molecular Devices).
The IC50 value is given as that concentration of the test compound in question that provoke a response halfway between the baseline and maximum responses.

T1 sequence (P10721 26-976): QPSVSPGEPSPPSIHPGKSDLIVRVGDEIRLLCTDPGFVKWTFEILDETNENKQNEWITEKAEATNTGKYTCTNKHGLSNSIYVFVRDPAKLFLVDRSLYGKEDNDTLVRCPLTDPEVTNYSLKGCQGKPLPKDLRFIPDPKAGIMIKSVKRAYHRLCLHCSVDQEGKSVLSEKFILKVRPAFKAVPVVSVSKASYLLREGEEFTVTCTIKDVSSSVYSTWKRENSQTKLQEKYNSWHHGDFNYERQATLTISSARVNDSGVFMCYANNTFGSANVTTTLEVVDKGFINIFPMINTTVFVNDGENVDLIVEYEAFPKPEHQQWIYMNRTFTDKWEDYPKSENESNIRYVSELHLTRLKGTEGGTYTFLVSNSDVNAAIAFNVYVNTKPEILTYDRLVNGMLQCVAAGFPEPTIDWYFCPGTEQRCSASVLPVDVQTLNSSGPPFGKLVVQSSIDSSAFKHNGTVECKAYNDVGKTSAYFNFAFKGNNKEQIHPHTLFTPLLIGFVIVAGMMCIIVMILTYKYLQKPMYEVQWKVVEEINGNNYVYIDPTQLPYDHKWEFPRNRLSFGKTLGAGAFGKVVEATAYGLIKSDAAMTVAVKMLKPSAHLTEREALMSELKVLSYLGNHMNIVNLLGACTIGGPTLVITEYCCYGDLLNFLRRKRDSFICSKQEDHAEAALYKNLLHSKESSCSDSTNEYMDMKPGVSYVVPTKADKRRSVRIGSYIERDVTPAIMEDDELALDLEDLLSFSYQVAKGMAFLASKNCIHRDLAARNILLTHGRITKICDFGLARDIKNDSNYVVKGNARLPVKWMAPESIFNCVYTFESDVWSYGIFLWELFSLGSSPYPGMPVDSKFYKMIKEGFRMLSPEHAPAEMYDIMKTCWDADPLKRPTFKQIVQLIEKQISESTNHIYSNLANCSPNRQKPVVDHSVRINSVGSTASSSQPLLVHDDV

SMILES | IC50 [nM]
Cc1cccc(-c2noc(-c3ccc(C)c(NC(=O)c4cnc5ccccn45)c3)n2)n1 [F28, N-(2-methyl-5-(3-(6-methylpyridin-2-yl)-1,2,4-oxadiazol-5-yl)phenyl)imidazo[1,2-a]pyridine-3-carboxamide] | 252
Cc1ccc(-c2nc(-c3ccc(C(F)(F)F)cc3)no2)cc1NC(=O)c1cnc2ccccn12 [F31, N-(2-methyl-5-{3-[4-(trifluoromethyl)phenyl]-1,2,4-oxadiazol-5-yl}phenyl)imidazo[1,2-a]pyridine-3-carboxamide] | 1040
Cc1ccc(-c2noc(-c3ccccn3)n2)cc1NC(=O)c1cnc2ccccn12 [F42, N-{2-methyl-5-[5-(pyridin-2-yl)-1,2,4-oxadiazol-3-yl]phenyl}imidazo[1,2-a]pyridine-3-carboxamide] | 105
Cc1ccc(-c2nc(-c3ccccc3)no2)cc1NC(=O)c1cnc2ccccn12 [F46, N-[2-methyl-5-(3-phenyl-1,2,4-oxadiazol-5-yl)phenyl]imidazo[1,2-a]pyridine-3-carboxamide] | 101
Cc1ccc(-c2noc(-c3ccccc3N3CCN(C)CC3)n2)cc1NC(=O)c1cnc2ccccn12 [F52, N-(2-methyl-5-{5-[2-(4-methylpiperazin-1-yl)phenyl]-1,2,4-oxadiazol-3-yl}phenyl)imidazo[1,2-a]pyridine-3-carboxamide] | 433
Cc1ccc(-c2noc(-c3ccc(N4CCN(C)CC4)cc3)n2)cc1NC(=O)c1cnc2ccccn12 [F54, N-(2-methyl-5-{5-[4-(4-methylpiperazin-1-yl)phenyl]-1,2,4-oxadiazol-3-yl}phenyl)imidazo[1,2-a]pyridine-3-carboxamide] | 370
Cc1ccc(-c2noc(CCn3cncn3)n2)cc1NC(=O)c1cnc2ccccn12 [F58, N-(2-methyl-5-{5-[2-(1H-1,2,4-triazol-1-yl)ethyl]-1,2,4-oxadiazol-3-yl}phenyl)imidazo[1,2-a]pyridine-3-carboxamide] | 135
Cc1ccc(-c2noc(Cn3cnnn3)n2)cc1NC(=O)c1cnc2ccccn12 [F59, N-{2-methyl-5-[5-(1H-1,2,3,4-tetrazol-1-ylmethyl)-1,2,4-oxadiazol-3-yl]phenyl}imidazo[1,2-a]pyridine-3-carboxamide] | 646
Cc1ccc(-c2noc(Cn3ccnc3C)n2)cc1NC(=O)c1cnc2ccccn12 [F60, N-(2-methyl-5-{5-[(2-methyl-1H-imidazol-1-yl)methyl]-1,2,4-oxadiazol-3-yl}phenyl)imidazo[1,2-a]pyridine-3-carboxamide] | 445
Cc1ccc(-c2noc(Cn3ccnc3)n2)cc1NC(=O)c1cnc2ccccn12 [F61, N-{5-[5-(1H-imidazol-1-ylmethyl)-1,2,4-oxadiazol-3-yl]-2-methylphenyl}imidazo[1,2-a]pyridine-3-carboxamide] | 280
Cc1ccc(-c2noc(Cn3cncn3)n2)cc1NC(=O)c1cnc2ccccn12 [F63, N-{2-methyl-5-[5-(1H-1,2,4-triazol-1-ylmethyl)-1,2,4-oxadiazol-3-yl]phenyl}imidazo[1,2-a]pyridine-3-carboxamide] | 269
Cc1ccc(Nc2noc(-c3cccnn3)n2)cc1NC(=O)c1cnc2ccccn12 [F64, N-(2-methyl-5-{[5-(pyridazin-3-yl)-1,2,4-oxadiazol-3-yl]amino}phenyl)imidazo[1,2-a]pyridine-3-carboxamide] | 115

Second part, the compound after the results:

IC50 [nM] | SMILES
596 | COc1cccc(F)c1-c1noc(-c2ccc(C)c(NC(=O)c3cnc4ccccn34)c2)n1 [F40, N-{5-[3-(2-fluoro-6-methoxyphenyl)-1,2,4-oxadiazol-5-yl]-2-methylphenyl}imidazo[1,2-a]pyridine-3-carboxamide]
232 | Cc1ccc(-c2noc(-c3nccn3C)n2)cc1NC(=O)c1cnc2ccccn12 [F49, N-{2-methyl-5-[5-(1-methyl-1H-imidazol-2-yl)-1,2,4-oxadiazol-3-yl]phenyl}imidazo[1,2-a]pyridine-3-carboxamide]
101 | Cc1ccc(-c2noc(-c3cccc(N4CCN(C)CC4)c3)n2)cc1NC(=O)c1cnc2ccccn12 [F53, N-(2-methyl-5-{5-[3-(4-methylpiperazin-1-yl)phenyl]-1,2,4-oxadiazol-3-yl}phenyl)imidazo[1,2-a]pyridine-3-carboxamide]
340 | Cc1ccc(-c2noc(CCc3nccn3C)n2)cc1NC(=O)c1cnc2ccccn12 [F56, N-(2-methyl-5-{5-[2-(1-methyl-1H-imidazol-2-yl)ethyl]-1,2,4-oxadiazol-3-yl}phenyl)imidazo[1,2-a]pyridine-3-carboxamide]
337 | Cc1ccc(-c2noc(CCn3ccnc3)n2)cc1NC(=O)c1cnc2ccccn12 [F57, N-(5-{5-[2-(1H-imidazol-1-yl)ethyl]-1,2,4-oxadiazol-3-yl}-2-methylphenyl)imidazo[1,2-a]pyridine-3-carboxamide]

Same assay, conditions: Table 2; Mo7e cells stimulated with human recombinant SCF, 48 hours; 20% FBS instead of 1% FBS (values marked *)

SMILES | IC50 [nM]
Cc1ccc(-c2nc(-c3ncccc3F)no2)cc1NC(=O)c1cnc2ccccn12 [F29, N-{5-[3-(3-fluoropyridin-2-yl)-1,2,4-oxadiazol-5-yl]-2-methylphenyl}imidazo[1,2-a]pyridine-3-carboxamide] | 205
Cc1ccc(-c2nc(-c3ccc(C(F)(F)F)cn3)no2)cc1NC(=O)c1cnc2ccccn12 [F30, N-(2-methyl-5-{3-[5-(trifluoromethyl)pyridin-2-yl]-1,2,4-oxadiazol-5-yl}phenyl)imidazo[1,2-a]pyridine-3-carboxamide] | 359
COc1ccnc(-c2noc(-c3ccc(C)c(NC(=O)c4cnc5ccccn45)c3)n2)c1 [F33, N-{5-[3-(4-methoxypyridin-2-yl)-1,2,4-oxadiazol-5-yl]-2-methylphenyl}imidazo[1,2-a]pyridine-3-carboxamide] | 265
Cc1ccc(-c2nc(-c3cccnc3OCC(F)(F)F)no2)cc1NC(=O)c1cnc2ccccn12 [F38, N-(2-methyl-5-{3-[2-(2,2,2-trifluoroethoxy)pyridin-3-yl]-1,2,4-oxadiazol-5-yl}phenyl)imidazo[1,2-a]pyridine-3-carboxamide] | 192
COc1ccccc1Cc1noc(-c2ccc(C)c(NC(=O)c3cnc4ccccn34)c2)n1 [F45, N-(5-{3-[(2-methoxyphenyl)methyl]-1,2,4-oxadiazol-5-yl}-2-methylphenyl)imidazo[1,2-a]pyridine-3-carboxamide] | 116
Cc1ccc(-c2noc(-c3ccccc3)n2)cc1NC(=O)c1cnc2ccccn12 [F47, N-[2-methyl-5-(5-phenyl-1,2,4-oxadiazol-3-yl)phenyl]imidazo[1,2-a]pyridine-3-carboxamide] | 196
Cc1ccc(-c2nc(-c3ccc(C)c(NC(=O)c4cnc5ccccn45)c3)no2)cn1 [F50, N-{2-methyl-5-[5-(6-methylpyridin-3-yl)-1,2,4-oxadiazol-3-yl]phenyl}imidazo[1,2-a]pyridine-3-carboxamide] | 850
Cc1ccc(-c2noc(-c3ccccc3N3CCOCC3)n2)cc1NC(=O)c1cnc2ccccn12 [F51, N-(2-methyl-5-{5-[2-(morpholin-4-yl)phenyl]-1,2,4-oxadiazol-3-yl}phenyl)imidazo[1,2-a]pyridine-3-carboxamide] | 179
Cc1ccc(-c2noc(-c3cccc(N4CCOCC4)c3)n2)cc1NC(=O)c1cnc2ccccn12 [F55, N-(2-methyl-5-{5-[3-(morpholin-4-yl)phenyl]-1,2,4-oxadiazol-3-yl}phenyl)imidazo[1,2-a]pyridine-3-carboxamide] | 330

Continued, values first:

IC50 [nM] | SMILES
274 | Cc1ccc(-c2nc(-c3ccc(Cl)cc3)no2)cc1NC(=O)c1cnc2ccccn12 [F27, N-{5-[3-(4-chlorophenyl)-1,2,4-oxadiazol-5-yl]-2-methylphenyl}imidazo[1,2-a]pyridine-3-carboxamide]
249 | Cc1ccc(-c2nc(COc3ccccc3)no2)cc1NC(=O)c1cnc2ccccn12 [F32, N-{2-methyl-5-[3-(phenoxymethyl)-1,2,4-oxadiazol-5-yl]phenyl}imidazo[1,2-a]pyridine-3-carboxamide]
139 | Cc1ccc(-c2nc(-c3cnccc3C)no2)cc1NC(=O)c1cnc2ccccn12 [F34, N-{2-methyl-5-[3-(4-methylpyridin-3-yl)-1,2,4-oxadiazol-5-yl]phenyl}imidazo[1,2-a]pyridine-3-carboxamide]
173 | Cc1ccc(-c2nc(-c3cccc(F)c3)no2)cc1NC(=O)c1cnc2ccccn12 [F36, N-{5-[3-(3-fluorophenyl)-1,2,4-oxadiazol-5-yl]-2-methylphenyl}imidazo[1,2-a]pyridine-3-carboxamide]
104 | Cc1ccc(F)c(-c2noc(-c3ccc(C)c(NC(=O)c4cnc5ccccn45)c3)n2)c1 [F39, N-{5-[3-(2-fluoro-5-methylphenyl)-1,2,4-oxadiazol-5-yl]-2-methylphenyl}imidazo[1,2-a]pyridine-3-carboxamide]
289 | Cc1ccc(-c2nc(Cc3ccccc3OC(F)(F)F)no2)cc1NC(=O)c1cnc2ccccn12 [F43, N-[2-methyl-5-(3-{[2-(trifluoromethoxy)phenyl]methyl}-1,2,4-oxadiazol-5-yl)phenyl]imidazo[1,2-a]pyridine-3-carboxamide]
236 | Cc1ccc(-c2nc(-c3cccnc3Cl)no2)cc1NC(=O)c1cnc2ccccn12 [F44, N-{5-[3-(2-chloropyridin-3-yl)-1,2,4-oxadiazol-5-yl]-2-methylphenyl}imidazo[1,2-a]pyridine-3-carboxamide]
815 | Cc1ccc(-c2noc(-c3ncccn3)n2)cc1NC(=O)c1cnc2ccccn12 [F48, N-{2-methyl-5-[5-(pyrimidin-2-yl)-1,2,4-oxadiazol-3-yl]phenyl}imidazo[1,2-a]pyridine-3-carboxamide]
